From US5260271A, “Nisin compositions for use as enhanced broad range bactericides” (Applied Microbiology, Inc., priority 1992, dated 1993)

What was measured:
[1] = test system: E. coli; experiment: Bactericidal activity, percent bacterial survival of E. coli suspension; assay type: cell-based, Escherichia coli; conditions: for Percentage E. coli Survival at 2 hours: 20 mM Tris pH 8.0
Description: (§1) All tests in the following examples were performed at 37° C. The efficacy of the enhanced broad range bactericides was determined by assaying bactericidal activity as measured by the percent bacterial survival after treatment with the bactericide. Generally, after incubation of a 10^7 cell per ml suspension of target species with the novel bactericide for specified lengths of time, bacteria were collected by centrifugation for 2 minutes. […] Surviving bacteria were determined by scoring colony forming units (CFU) after incubation for 24-48 hours at 37° C.
The effects of the bactericide were measured as a function of percentage bacteria survival after 2 hours.
Incubations were performed in 20 mM Tris, […] at 37° C.

[2] = test system: K. pneumoniae; experiment: Bactericidal activity, percent bacterial survival of K. pneumoniae suspension; assay type: cell-based, Klebsiella pneumoniae; conditions: Nisin 0, EDTA 20 mM, 20 mM Tris pH 8.0
Description: as §1
The effect was measured as a function of percentage bacterial survival after 2 hours.

[3] = test system: Staphylococcus aureus; experiment: Bactericidal activity towards Staphylococcus aureus, percent survival; assay type: cell-based; conditions: S. aureus
Description: (§2) All tests in the following examples were performed at 37° C. The efficacy of the enhanced broad range bactericides was determined by assaying bactericidal activity as measured by the percent bacterial survival after treatment with the bactericide. Generally, after incubation of a 10^7 cell per ml suspension of target species with the novel bactericide for specified lengths of time, bacteria were collected by centrifugation for 2 minutes. […] Surviving bacteria were determined by scoring colony forming units (CFU) after incubation for 24-48 hours at 37° C. An effective bactericide according to this invention is one which allows less than 0.1% of the initial viable count of the bacteria to survive.
Incubations were performed in 50 mM sodium acetate buffer, pH 5.0 or 20 m
TrisHCl buffer, pH 8.0 at 37° C.

[4] = test system: S. typhimurium on chicken muscle; experiment: Bactericidal activity towards S. typhimurium on chicken muscle (unadhered cells); assay type: cell-based, Salmonella typhimurium
Description: Incubations were performed in either 50 mM sodium acetate, pH 5.0, or 20 mM Tris, pH 8.0 at 37° C.
Cubes of chicken muscle were cleansed with sodium hypochlorite and povidone iodine prior to use. To inoculate the tissue, the cubes of chicken muscle were dipped into a 10^8 cells/ml suspension of S. typhimurium in 20 mM Tris HCl, pH 8.0. Excess moisture was removed from dipped cubes by tapping. The chicken samples were placed into sufficient buffer containing the nisin composition to cover the tissue and incubated for 2 hours at 37° C. after which the tissue was removed to sufficient Phage buffer to cover the tissue. The bacteria remaining in the test solution were collected by centrifugation, washed with Phage buffer, and combined with bacteria washed from the tissue by Phage buffer. The combined samples (termed "unadhered" cells) were serially diluted and 100 μl aliquots were plated for determination of surviving bacteria.
(§3) Cubes of chicken muscle were cleansed with sodium hypochlorite and povidone iodine prior to use. To inoculate the tissue, the cubes of chicken muscle were dipped into a 10^8 cells/ml suspension of S. typhimurium in 20 mM Tris HCl, pH 8.0. Excess moisture was removed from dipped cubes by tapping. The tissue was placed into sufficient buffer containing the nisin compositions to cover the tissue, and incubated for 2 hours at 37° C. after which the tissue was removed to sufficient Phage buffer to cover the tissue. The bacteria remaining in the test solution were collected by centrifugation, washed with Phage buffer, and combined with bacteria washed from the tissue by Phage buffer. The combined samples (termed "unadhered" cells) were serially diluted and 100 μl aliquots were plated for determination of surviving bacteria.
as §3, with “cleaned” for “cleansed”, “50” for “20”, “sodium acetate buffer,” for “Tris HCl,”, “5.0.” for “8.0.”, “containing” for “containing the”

[5] = test system: Coryneform bacteria; experiment: Bactericidal activity towards Coryneform bacteria; assay type: cell-based
Description: as §2
(§4) Incubations were performed in 20 mM TrisHCl, pH 8.0 at 37° C.

[6] = test system: S. typhimurium; experiment: Bactericidal activity, percent bacterial survival of S. typhimurium suspension; assay type: cell-based, Salmonella typhimurium; conditions: for % Survival at 2 hours: S. typhimurium
Description: as §1
The control (Test #1) is identical to the control of Example 1 (Table 1).

[7] = test system: Streptococcus mutans; experiment: Bactericidal activity and kinetics towards Streptococcus mutans in Tris buffer; assay type: cell-based; conditions: S. mutans, Nisin 0 with 1.0 mM EDTA, pH 7.3
Description: All tests in the following examples were performed at 37° C. The efficacy of the enhanced broad range bactericides was determined by assaying bactericidal activity as measured by the percent bacterial survival after treatment with the bactericide. Generally, after incubation of a 10^7 cell per ml suspension of target species with the novel bactericide for specified lengths of time, bacteria were collected by centrifugation for 2 minutes. The bacterial pellet was washed free of the bactericide with a rescue buffer, termed herein Phage buffer (50mM Tris-HCl buffer pH 7.8, 1 mM MgSO4, 4 mM CaCl2, 0.1 M Nacl, and 0.1% gelatin), resuspended and serially diluted into Phage buffer, and 100 μl of the suspended bacteria were spread on nutrient agar plates. Surviving bacteria were determined by scoring colony forming units (CFU) after incubation for 24-48 hours at 37° C.
The suspensions were incubated for various times ranging from 0.5 to 60 minutes with the bactericides.
Incubations were performed in 20 mM TrisHCl, pH 7.3 at 37° C.

[8] = test system: Listeria monocytogenes; experiment: Bactericidal activity towards Listeria monocytogenes in Tris buffer; assay type: cell-based; conditions: L. monocytogenes; pH 8.0, Nisin 0, EDTA 1.0 mM
Description: as §2, §4

[9] = test system: Listeria monocytogenes; experiment: Bactericidal activity towards Listeria monocytogenes in milk; assay type: cell-based; conditions: for % Survival 2 hr: L. monocytogenes in milk at 37° C.
Description: as §2
An example of where the application of nisin is limited by its available activity is illustrated by the data in Table 15B.
(§5) Incubations were in milk at 37° C.

[10] = test system: Streptococcus agalactiae; experiment: Bactericidal activity towards Streptococcus agalactiae in milk; assay type: cell-based; conditions: for % survival at 2h: S. agalactiae in milk at 37° C.
Description: as §2
However, the combination of the two agents, 0.1% monolaurin and nisin 0.2 μg/ml, is extremely potent towards S. agalactiae. […] Thus, when the application of nisin is limited by its available activity, a bactericide comprising nisin with a surfactant can be expected to be more useful.
as §5

## Triton X-100
[1]; Nisin 0, EDTA 0 mM, Triton X-100 1.0%
  Percentage E. coli Survival at 2 hours: 100%
[1]; Triton X-100 alone, tests #3 and #4 of Table 4
  bactericidal activity towards E. coli: no significant bactericidal activity

## O=C(O)CN(CCN(CC(=O)O)CC(=O)O)CC(=O)O [EDTA]
[2]
  % Survival at 2 hours: 22%
[3]; pH 5.0, Nisin 0, EDTA 3.0 mM
  % Survival 2 hr: 100%
[3]; pH 8.0, Nisin 0, EDTA 0.3 mM
  % Survival 2 hr: 100%
[3]; pH 8.0, Nisin 0, EDTA 1.0 mM
  % Survival 2 hr: 81%
[3]; pH 8.0, Nisin 0, EDTA 3.0 mM
  % Survival 2 hr: 100%
[3]; pH 8.0, Nisin 0, EDTA 10 mM
  % Survival 2 hr: 100%
[3]; pH 8.0, Nisin 0, EDTA 30 mM
  % Survival 2 hr: 100%
[4]; Table 9, chicken muscle, pH 8.0, Nisin 0, EDTA 1.0 mM, BSA 1.0%
  % Survival at 2 hours: 27%
[4]; Table 10, chicken muscle, Nisin 0, EDTA 10 mM, Methyl Paraben 0%, 50 mM Na acetate buffer, pH 5.0
  % Survival at 2 hours (Unadhered cells): 11.8%
[4]; chicken muscle, pH 5.0, Nisin 0, EDTA 10 mM
  % Survival at 2 hours (Unadhered cells): 6.4%
[4]; chicken muscle, pH 8.0, Nisin 0, EDTA 10 mM
  % Survival at 2 hours (Unadhered cells): 5.2%
[5]; pH 8.0, Nisin 0, EDTA 0.3 mM
  % Survival 2 hr: 4.6%
[5]; pH 8.0, Nisin 0, EDTA 1.0 mM
  % Survival 2 hr: 3.6%
[5]; pH 8.0, Nisin 0, EDTA 3.0 mM
  % Survival 2 hr: 8%
[5]; pH 8.0, Nisin 0, EDTA 10 mM
  % Survival 2 hr: 36%
[6]; Nisin 0, EDTA 20 mM, 20 mM Tris pH 8.0, 37° C
  Percentage S. typhimurium Survival at 3 hours: 2.5%
[6]; Nisin 0, EDTA 1.0 mM, BSA 1.0%, 20 mM Tris pH 8.0
  % Survival at 2 hours: 63%
[6]; pH 5.0 (50 mM sodium acetate), Nisin 0, EDTA 2.0 mM
  % Survival at 2 hours: 38.7%
[6]; pH 5.0, Nisin 0, EDTA 10 mM
  % Survival at 2 hours: 15.2%
[6]; pH 5.0, Nisin 0, EDTA 50 mM
  % Survival at 2 hours: 3.5%
[6]; pH 8.0 (20 mM Tris), Nisin 0, EDTA 2.0 mM
  % Survival at 2 hours: 8.7%
[6]; pH 8.0, Nisin 0, EDTA 10 mM
  % Survival at 2 hours: 14%
[6]; pH 8.0, Nisin 0, EDTA 50 mM
  % Survival at 2 hours: 11.4%
[6]; pH 8.0, Nisin 0, EDTA 100 mM
  % Survival at 2 hours: 45%
[6]; Table 3: Nisin 0, EDTA 20 mM, Tween20 0%, 20 mM Tris pH 8.0
  Percentage S. typhimurium Survival at 3 hours: 2.5%
[1]; E. coli, Nisin 0, 1.0 mM EDTA, 20 mM Tris pH 7.0
  % survival at 1 min.: 100%
[1]; Nisin 0, EDTA 20 mM, Triton X-100 0%
  Percentage E. coli Survival at 2 hours: 14.5%
[7]; incubation 3 min
  % Survival: 100%
[7]; incubation 60 min
  % Survival: 100%
[8]
  % Survival after 2 hr: 84%

## monooleate
[9]; Nisin 0, Monooleate 0.1%
  % Survival 2 hr: 67%
[9]; Nisin 0, Monooleate 1.0%
  % Survival 2 hr: 63%
[9]; monooleate by itself, in milk
  bactericidal activity towards L. monocytogenes: no bactericidal activity

## CCCCCCCCCCCC(=O)OCC(O)CO (centres unmarked) [Monolaurin, monolaurin]
[10]; Nisin 0, Monolaurin 0.01%
  % survival at 2h: 100%
[10]; Nisin 0, Monolaurin 0.1%
  % survival at 2h: 4.5%
[10]; monolaurin at concentrations up to 0.1%, in milk
  bactericidal activity towards Streptococcus agalactiae: little significant bactericidal activity
